ChEMBL document CHEMBL5113512, “β-Nitrostyrene derivatives as broad range potential antifungal agents targeting fungal cell wall” (2022)
≈ marks a conversion by molar mass, not a printed value. Calls of active or inactive are those of the source. The rule behind the calls is not given here.

How the values were obtained:
[Candida] auris [1] = Induction of ROS generation in Candida auris CBS10913 assessed as increase in relative fluorescence unit at sub-inhibitory concentration incubated for 1 hr by DCFDA staining-based flow cytometric analysis; format: functional, organism-based; settings: Candidozyma auris
Candida [2] = assay: Downregulation of BMT5 gene expression in Candida cells; format: functional, cell-based
Candida [3] = assay: Downregulation of RIO2 gene expression in Candida cells; format: functional, cell-based
Candida parapsilosis [4] = assay: Synergistic antifungal activity against Candida parapsilosis ATCC 90018 assessed as inhibition of fungal growth incubated for 48 hrs in presence of SDS by checker board assay; format: functional; settings: Lodderomyces parapsilosis
[Candida] auris [5] = Synergistic antifungal activity against Candida auris CBS10913 assessed as fractional inhibitory concentration index incubated for 48 hrs in presence of Congo red by checker board assay; format: functional, Candidozyma auris
Candida [6] = assay: Upregulation of CPA1 gene expression in Candida cells; format: functional, cell-based
Cell membrane [7] = assay: Disruption of membrane integrity in Candida auris CBS10913 assessed as cell shrinkage and lysis by measuring leakage of intracellular material measured after 6 hrs by SEM analysis; settings: Candidozyma auris
Candida [8] = assay: Upregulation of ARG4 gene expression in Candida cells; format: functional, cell-based
Candida [9] = assay: Downregulation of GIT3 gene expression in Candida cells; format: functional, cell-based
Candida albicans [10] = assay: Inhibition of drug efflux in Candida albicans ATCC 24433 overexpressing AD(1-8)u- assessed as […] in nile red efflux incubated for 30 mins by flow cytometry; format: functional
Candida albicans [11] = assay: Synergistic antifungal activity against wild type Candida albicans SN152 assessed as fluconazole MIC incubated for 48 hrs by checker board assay; format: functional
Candida albicans [12] = assay: Antifungal activity against wild type Candida albicans SN152 assessed as inhibition of fungal growth by broth microdilution method; format: functional
Cell membrane [13] = assay: Disruption of membrane integrity in Candida albicans ATCC 24433 assessed as cell surface perturbations measured after 3 hrs by SEM analysis
Candida albicans [14] = assay: Synergistic antifungal activity against Candida albicans ATCC 24433 assessed as SDS MIC incubated for 48 hrs by checker board assay; format: functional
Candida albicans [15] = assay: Synergistic antifungal activity against wild type Candida albicans SN152 assessed as inhibition of fungal growth incubated for 48 hrs in presence of Caspofungin by checker board assay; format: functional
Candida [16] = assay: Upregulation of VPH2 gene expression in Candida cells; format: functional, cell-based
Candida tropicalis = assay: Antifungal activity against Candida tropicalis ATCC 750 assessed as inhibition of fungal growth by broth microdilution method; format: functional
Candida [17] = assay: Downregulation of RBT1 gene expression in Candida cells; format: functional, cell-based
[Candida] auris [18] = Synergistic antifungal activity against Candida auris CBS10913 assessed as SDS MIC incubated for 48 hrs by checker board assay; format: functional; settings: Candidozyma auris
Candida albicans [19] = assay: Upregulation of IFF8 gene expression in Candida albicans ATCC 24433 by qRT-PCR analysis; format: functional
Candida [20] = assay: Downregulation of CDC42 gene expression in Candida cells; format: functional, cell-based
Candida albicans [21] = assay: Antifungal activity against Candida albicans ATCC 24433 overexpressing AD(1-8)u-assessed as inhibition of fungal growth by broth microdilution method; format: functional
Candida albicans [22] = assay: Antifungal activity against Candida albicans ATCC 24433 overexpressing transporter protein GU4 assessed as inhibition of fungal growth by broth microdilution method; format: functional
Candida albicans [23] = assay: Synergistic antifungal activity against Candida albicans SN152 harboring CAS5 mutant assessed as inhibition of fungal growth incubated for 48 hrs in presence of Caspofungin by checker board assay; format: functional
Candida [24] = assay: Upregulation of ARG2 gene expression in Candida cells; format: functional, cell-based
Candida albicans [25] = assay: Synergistic antifungal activity against Candida albicans ATCC 24433 assessed as fractional inhibitory concentration index incubated for 48 hrs in presence of SDS by checker board assay; format: functional
Candida albicans [26] = assay: Synergistic antifungal activity against Candida albicans ATCC 24433 assessed as fractional inhibitory concentration index incubated for 48 hrs in presence of caspofungin by checker board assay; format: functional
Candida albicans [27] = assay: Synergistic antifungal activity against wild type Candida albicans SN152 assessed as fractional inhibitory concentration index incubated for 48 hrs in presence of fluconazole by checker board assay; format: functional
Candida albicans [28] = assay: Synergistic antifungal activity against Candida albicans ATCC 24433 overexpressing ADCDR1-GFP assessed as fractional inhibitory concentration index incubated for 48 hrs in presence of caspofungin by checker board assay; format: functional
[Candida] auris [29] = Antifungal activity against wild type Candida auris 102 assessed as inhibition of fungal growth by broth microdilution method; format: functional; settings: Candidozyma auris
Candida parapsilosis [30] = assay: Synergistic antifungal activity against Candida parapsilosis ATCC 90018 assessed as Calcoflour White MIC incubated for 48 hrs by checker board assay; format: functional; settings: Lodderomyces parapsilosis
Candida albicans [31] = assay: Antifungal activity against Candida albicans ATCC 24433 overexpressing ADCDR1-GFP assessed as inhibition of fungal growth by broth microdilution method; format: functional
Candida albicans [32] = assay: Antifungal activity against Candida albicans SN152 harboring CAS5 mutant assessed as inhibition of fungal growth by broth microdilution method; format: functional
Candida albicans [33] = assay: Synergistic antifungal activity against Candida albicans ATCC 24433 assessed as inhibition of fungal growth incubated for 48 hrs in presence of Congo red by checker board assay; format: functional
Candida [34] = assay: Upregulation of CPA2 gene expression in Candida cells; format: functional, cell-based
Candida [35] = assay: Downregulation of CPH1 gene expression in Candida cells; format: functional, cell-based
Candida albicans [36] = assay: Synergistic antifungal activity against Candida albicans ATCC 24433 assessed as inhibition of fungal growth incubated for 48 hrs in presence of Calcoflour White by checker board assay; format: functional
Candida albicans [37] = assay: Synergistic antifungal activity against wild type Candida albicans SN152 assessed as fractional inhibitory concentration index incubated for 48 hrs in presence of Amphotericin B by checker board assay; format: functional
Candida [38] = assay: Downregulation of VTC3 gene expression in Candida cells; format: functional, cell-based
Candida [39] = assay: Downregulation of VPS34 gene expression in Candida cells; format: functional, cell-based
Candida [40] = assay: Upregulation of ARG6 gene expression in Candida cells; format: functional, cell-based
Candida [41] = assay: Downregulation of CAS5 gene expression in Candida cells; format: functional, cell-based
Cell membrane [42] = assay: Disruption of membrane integrity in Candida albicans ATCC 24433 assessed as cell deformation measured after 30 mins by SEM analysis; format: subcellular
Candida [43] = assay: Downregulation of CDC15 gene expression in Candida cells; format: functional, cell-based
Candida parapsilosis [44] = assay: Synergistic antifungal activity against Candida parapsilosis ATCC 90018 assessed as fractional inhibitory concentration index incubated for 48 hrs in presence of Calcoflour White by checker board assay; format: functional
Candida albicans [45] = assay: Inhibition of drug efflux in Candida albicans ATCC 24433 overexpressing ADCaMDR1-GF assessed as […] in nile red efflux incubated for 30 mins by flow cytometry; format: functional
Candida [46] = assay: Downregulation of PGA57 gene expression in Candida cells; format: functional, cell-based
Candida parapsilosis [47] = assay: Synergistic antifungal activity against Candida parapsilosis ATCC 90018 assessed as fractional inhibitory concentration index incubated for 48 hrs in presence of Congo red by checker board assay; format: functional
Candida albicans [48] = assay: Synergistic antifungal activity against wild type Candida albicans SN152 assessed as Amphotericin B MIC incubated for 48 hrs by checker board assay; format: functional
Candida [49] = assay: Downregulation of TCP1 gene expression in Candida cells; format: functional, cell-based
Candida albicans [50] = assay: Synergistic antifungal activity against wild type Candida albicans SN152 assessed as Caspofungin MIC incubated for 48 hrs by checker board assay; format: functional

## O=[N+]([O-])/C=C/c1ccc(O)cc1
[Candida] auris [1]
  Activity: Active
Candida [2]
  Activity: Active
Candida [3]
  Activity: Active
Candida parapsilosis [4]
  MIC: 1 µg/mL
[Candida] auris [5]
  fractional inhibitory concentration index (FICI): 0.3125
Candida [6]
  Activity: Active
Cell membrane [7]
  Activity: Active
Candida [8]
  Activity: Active
Candida [9]
  Activity: Active
Candida albicans [10]
  inhibition: Active
Candida albicans [11]
  MIC: 0.25 µg/mL
Candida albicans [12]
  MIC80: 8 µg/mL (≈ 48.4 µM)
Cell membrane [13]
  Activity: Active
Candida albicans [14]
  MIC: 12.5 µg/mL
Candida albicans [15]
  MIC: 0.0625 µg/mL
Candida [16]
  Activity: Active
Candida tropicalis
  MIC80: 4 µg/mL (≈ 24.2 µM)
Candida [17]
  Activity: Active
[Candida] auris [18]
  MIC: 60 µg/mL
Candida albicans [19]
  Activity: Active
Candida [20]
  Activity: Active
Candida albicans [21]
  MIC80: 4 µg/mL (≈ 24.2 µM)
Candida albicans [22]
  MIC80: 4 µg/mL (≈ 24.2 µM)
Candida albicans [23]
  MIC: 0.0019 µg/mL
Candida [24]
  Activity: Active
Candida albicans [25]
  fractional inhibitory concentration index (FICI): 0.5
Candida albicans [26]
  fractional inhibitory concentration index (FICI): <3.5
Candida albicans [27]
  fractional inhibitory concentration index (FICI): 0.25
Candida albicans [28]
  fractional inhibitory concentration index (FICI): <0.5
[Candida] auris [29]
  MIC80: 2 µg/mL (≈ 12.1 µM)
Candida parapsilosis [30]
  MIC: 25 µg/mL
Candida albicans [31]
  MIC80: 4 µg/mL (≈ 24.2 µM)
Candida albicans [32]
  MIC80: 2 µg/mL (≈ 12.1 µM)
Candida albicans [33]
  MIC: 0.5 µg/mL
Candida [34]
  Activity: Active
Candida [35]
  Activity: Active
Candida albicans [36]
  MIC: 0.0078 µg/mL
Candida albicans [37]
  fractional inhibitory concentration index (FICI): 0.507
Candida [38]
  Activity: Active
Candida [39]
  Activity: Active
Candida [40]
  Activity: Active
Candida [41]
  Activity: Active
Cell membrane [42]
  Activity: Active
Candida [43]
  Activity: Active
Candida parapsilosis [44]
  fractional inhibitory concentration index (FICI): 0.5
Candida albicans [45]
  inhibition: Active
Candida [46]
  Activity: Active
Candida parapsilosis [47]
  fractional inhibitory concentration index (FICI): 0.25
Candida albicans [48]
  MIC: 0.25 µg/mL
Candida [49]
  Activity: Active
Candida albicans [50]
  MIC: 0.0312 µg/mL
